Assay results: US20260354380A1, “PYRAZOLO PESTICIDAL COMPOUNDS” (BASF SE, priority 2022, published 2026)

How the values were obtained:
Assay type in all cases: in vivo
Heliothis virescens = assay: Action on Tobacco Budworm (Heliothis virescens); conditions: 800 ppm; egg and larval mortality; 5 days
Protocol: Example B5: Action on Tobacco Budworm (Heliothis virescens)
For evaluating control of tobacco budworm (Heliothis virescens) the test unit consisted of 96-well-microtiter plates containing an insect diet and 15-25 H. virescens eggs.
The compounds were formulated using a solution containing 75% v/v water and 25% v/v DMSO. Different concentrations of formulated compounds were sprayed onto the insect diet at 10 μl, using a custom-built micro atomizer, at two replications.
After application, microtiter plates were incubated at about 28±1 °C and about 80±5% relative humidity for 5 days. Egg and larval mortality were then visually assessed.

Aedes aegypti = assay: whole plant or invertebrate; conditions: 800 ppm; larvae; 2 days
Protocol: Example B1: Action on Yellow Fever Mosquito (Aedes aegypti)
For evaluating control of yellow fever mosquito (Aedes aegypti) the test unit consisted of 96-well-microtiter plates containing 200 μl of tap water per well and 5-15 freshly hatched A. aegypti larvae.
The active compounds or mixtures were formulated using a solution containing 75% (v/V) water and 25% (v/v) DMSO. Different concentrations of formulated compounds or mixtures were sprayed onto the insect diet at 2.5 μl, using a custom-built micro atomizer, at two replications. For experimental mixtures in these tests identical volumes of both mixing partners at the desired concentrations respectively, were mixed together.
After application, microtiter plates were incubated at 28±1 °C, 80±5% RH for 2 days. Larval mortality was then visually assessed.

Spodoptera eridania = assay: Action on Southern Armyworm (Spodoptera eridania), 2nd Instar Larvae; conditions: 300 ppm; 2nd instar larvae; 4 days after treatment
Protocol: Example B7: Action on Southern Armyworm (Spodoptera eridania), 2nd Instar Larvae
The active compounds were formulated by a Tecan liquid handler in 100% cyclohexanone as a 10,000 ppm solution supplied in tubes. The 10,000 ppm solution was serially diluted in 100% cyclohexanone to make interim solutions. These served as stock solutions for which final dilutions were made by the Tecan in 50% acetone: 50% water (v/v) into 10 or 20 ml glass vials. A nonionic surfactant (Kinetic®) was included in the solution at a volume of 0.01% (v/v). The vials were then inserted into an automated electrostatic sprayer equipped with an atomizing nozzle for application to plants/insects.
Lima bean plants (variety Sieva) were grown 2 plants to a pot and selected for treatment at the 1st true leaf stage. Test solutions were sprayed onto the foliage by an automated electrostatic plant sprayer equipped with an atomizing spray nozzle. The plants were dried in the sprayer fume hood and then removed from the sprayer. Each pot was placed into perforated plastic bags with a zip closure. About 10 to 11 armyworm larvae were placed into the bag and the bags zipped closed. Test plants were maintained in a growth room at about 25 °C and about 20-40% relative humidity for 4 days, avoiding direct exposure to fluorescent light (24 hour photoperiod) to prevent trapping of heat inside the bags. Mortality and reduced feeding were assessed 4 days after treatment, compared to untreated control plants.
(§1) Compounds disclosed in the document WO2021013561 were prepared according to procedures described therein and their pesticidal activities were determined by procedure analogues to the procedures as described above in examples B6 and B7.

Plutella xylostella = assay: Action on Diamond Back Moth (Plutella xylostella), cabbage leaf dip, 3rd instar larvae; conditions: 300 ppm; 3rd instar larvae; 72 hours after treatment
Protocol: Example B6: Action on Diamond Back Moth (Plutella xylostella)
The active compound is dissolved at the desired concentration in a mixture of 1:1 (v/v) distilled water:acetone. Surfactant (Kinetic® HV) is added at a rate of 0.01% (v/v). The test solution is prepared at the day of use.
Leaves of cabbage were dipped in test solution and air-dried. Treated leaves were placed in petri dishes lined with moist filter paper and inoculated with ten 3rd instar larvae. Mortality was recorded 72 hours after treatment. Feeding damages were also recorded using a scale of 0-100%.
as §1

Anthonomus grandis = assay: Action on Boll Weevil (Anthonomus grandis); conditions: 800 ppm; egg and larval mortality; 5 days
Protocol: Example B3: Action on Boll Weevil (Anthonomus grandis)
For evaluating control of boll weevil (Anthonomus grandis) the test unit consisted of 96-well-microtiter plates containing an insect diet and 5-10 A. grandis eggs.
The compounds were formulated using a solution containing 75% (v/v) water and 25% (v/v) DMSO. Different concentrations of formulated compounds were sprayed onto the insect diet at 5 μl, using a custom-built micro atomizer, at two replications.
After application, microtiter plates were incubated at about 25±1 °C and about 75±5% relative humidity for 5 days. Egg and larval mortality were then visually assessed.

## Cc1ccc(C(C)C)c(N2C(=O)CS/C2=N\C(=O)Nc2ccc(-n3cc(NC(=O)c4ccc(Cl)c(Cl)c4)c(C)n3)cc2)c1 [Example C-26]
Heliothis virescens
  mortality in comparison with untreated controls: at least 75%
Aedes aegypti
  mortality in comparison with untreated controls: at least 50%
Spodoptera eridania
  mortality in comparison with untreated controls: at least 75%
Plutella xylostella
  mortality in comparison with untreated controls: at least 75%
Anthonomus grandis
  mortality in comparison with untreated controls: at least 75%

## Cc1ccc(C(C)C)c(N2C(=O)CSC2=NC(=O)Nc2ccc(-n3cc(NC(=O)c4csc(Cl)c4)c(C)n3)cc2)c1 [Example C-39]
Heliothis virescens
  mortality in comparison with untreated controls: at least 75%
Aedes aegypti
  mortality in comparison with untreated controls: at least 50%
Spodoptera eridania
  mortality in comparison with untreated controls: at least 75%
Plutella xylostella
  mortality in comparison with untreated controls: at least 75%
Anthonomus grandis
  mortality in comparison with untreated controls: at least 75%

## C#Cc1ccc(C(=O)Nc2cn(-c3ccc(NC(=O)/N=C4\SCC(=O)N4c4cc(C)ccc4C(C)C)cc3)nc2C)cc1 [Example C-34]
Heliothis virescens
  mortality in comparison with untreated controls: at least 75%
Aedes aegypti
  mortality in comparison with untreated controls: at least 50%
Spodoptera eridania
  mortality in comparison with untreated controls: at least 75%
Plutella xylostella
  mortality in comparison with untreated controls: at least 75%
Anthonomus grandis
  mortality in comparison with untreated controls: at least 75%

## Cc1ccc(C(F)(F)F)c(N2C(=O)CS/C2=N\C(=O)Nc2ccc(-n3nc(C)c(NC(=O)c4ccc(OC(F)(F)F)cc4)c3C)cc2)c1 [Example C-16]
Heliothis virescens
  mortality in comparison with untreated controls: at least 75%
Aedes aegypti
  mortality in comparison with untreated controls: at least 50%
Spodoptera eridania
  mortality in comparison with untreated controls: at least 75%
Plutella xylostella
  mortality in comparison with untreated controls: at least 75%
Anthonomus grandis
  mortality in comparison with untreated controls: at least 75%

## Cc1ccc(C(C)C)c(N2C(=O)CS/C2=N\C(=O)Nc2ccc(-n3cc(NC(=O)c4ccc(C)s4)c(C)n3)cc2)c1 [Example C-94]
Heliothis virescens
  mortality in comparison with untreated controls: at least 75%
Aedes aegypti
  mortality in comparison with untreated controls: at least 50%
Spodoptera eridania
  mortality in comparison with untreated controls: at least 75%
Plutella xylostella
  mortality in comparison with untreated controls: at least 75%
Anthonomus grandis
  mortality in comparison with untreated controls: at least 75%

## COc1cc(-n2cc(NC(=O)c3ccc(OC(F)(F)F)cc3)c(C)n2)ccc1NC(=O)/N=C1\SCC(=O)N1c1cc(C)ccc1C(C)C [Example C-14]
Heliothis virescens
  mortality in comparison with untreated controls: at least 75%
Aedes aegypti
  mortality in comparison with untreated controls: at least 50%
Spodoptera eridania
  mortality in comparison with untreated controls: at least 75%
Plutella xylostella
  mortality in comparison with untreated controls: at least 75%
Anthonomus grandis
  mortality in comparison with untreated controls: at least 75%

## Cc1ccc(C(C)C)c(N2C(=O)CS/C2=N\C(=O)Nc2ccc(-n3cc(NC(=O)c4ccc(F)c(Cl)c4)c(C)n3)cc2)c1 [Example C-28]
Heliothis virescens
  mortality in comparison with untreated controls: at least 75%
Aedes aegypti
  mortality in comparison with untreated controls: at least 50%
Spodoptera eridania
  mortality in comparison with untreated controls: at least 75%
Plutella xylostella
  mortality in comparison with untreated controls: at least 75%
Anthonomus grandis
  mortality in comparison with untreated controls: at least 75%

## Cc1ccc(C(C)C)c(N2C(=O)CSC2=NC(=O)Nc2ccc(-n3cc(NC(=O)c4ccc(C(F)F)cc4)c(C)n3)cc2)c1 [Example C-82]
Heliothis virescens
  mortality in comparison with untreated controls: at least 75%
Aedes aegypti
  mortality in comparison with untreated controls: at least 50%
Spodoptera eridania
  mortality in comparison with untreated controls: at least 75%
Plutella xylostella
  mortality in comparison with untreated controls: at least 75%
Anthonomus grandis
  mortality in comparison with untreated controls: at least 75%

## Cc1ccc(C(F)(F)F)c(N2C(=O)CSC2=NC(=O)Nc2ccc(-n3cc(NC(=O)c4ccc(OC(F)(F)F)cc4)c(C)n3)cc2)c1 [Example C-12]
Heliothis virescens
  mortality in comparison with untreated controls: at least 75%
Aedes aegypti
  mortality in comparison with untreated controls: at least 50%
Spodoptera eridania
  mortality in comparison with untreated controls: at least 75%
Plutella xylostella
  mortality in comparison with untreated controls: at least 75%
Anthonomus grandis
  mortality in comparison with untreated controls: at least 75%

## Cc1ccc(C(C)C)c(N2C(=O)CSC2=NC(=O)Nc2ccc(-n3cc(NC(=O)c4nc(Cl)cs4)c(C)n3)cc2)c1 [Example C-42]
Heliothis virescens
  mortality in comparison with untreated controls: at least 75%
Aedes aegypti
  mortality in comparison with untreated controls: at least 50%
Spodoptera eridania
  mortality in comparison with untreated controls: at least 75%
Plutella xylostella
  mortality in comparison with untreated controls: at least 75%
Anthonomus grandis
  mortality in comparison with untreated controls: at least 75%
